# Measurements: PubChem BioAssay AID1645866 (Buhrlage Lab, Dana-Farber Cancer Institute and Novartis …, 2021)
# Active and inactive are the calls of the source.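 How the source made its calls: active means in confirmatory dose-response testing, peak deubiquitinase inhibition of 30% or more; inactive means the rest.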
# Target: Ubiquitin carboxyl-terminal hydrolase 28 (Homo sapiens) (UniProt Q96RU2)
# Assay: Ubiquitin-specific peptidase 28 DUB inhibitors, biochemical concentration-dependence assay, validation of primary screening hits (AID 1645866)
# Details: purified USP28, ubiquitin-rhodamine fluorescence, 30 min
# Sequence of Ubiquitin carboxyl-terminal hydrolase 28 (Homo sapiens) (Q96RU2 whole entry, looked up): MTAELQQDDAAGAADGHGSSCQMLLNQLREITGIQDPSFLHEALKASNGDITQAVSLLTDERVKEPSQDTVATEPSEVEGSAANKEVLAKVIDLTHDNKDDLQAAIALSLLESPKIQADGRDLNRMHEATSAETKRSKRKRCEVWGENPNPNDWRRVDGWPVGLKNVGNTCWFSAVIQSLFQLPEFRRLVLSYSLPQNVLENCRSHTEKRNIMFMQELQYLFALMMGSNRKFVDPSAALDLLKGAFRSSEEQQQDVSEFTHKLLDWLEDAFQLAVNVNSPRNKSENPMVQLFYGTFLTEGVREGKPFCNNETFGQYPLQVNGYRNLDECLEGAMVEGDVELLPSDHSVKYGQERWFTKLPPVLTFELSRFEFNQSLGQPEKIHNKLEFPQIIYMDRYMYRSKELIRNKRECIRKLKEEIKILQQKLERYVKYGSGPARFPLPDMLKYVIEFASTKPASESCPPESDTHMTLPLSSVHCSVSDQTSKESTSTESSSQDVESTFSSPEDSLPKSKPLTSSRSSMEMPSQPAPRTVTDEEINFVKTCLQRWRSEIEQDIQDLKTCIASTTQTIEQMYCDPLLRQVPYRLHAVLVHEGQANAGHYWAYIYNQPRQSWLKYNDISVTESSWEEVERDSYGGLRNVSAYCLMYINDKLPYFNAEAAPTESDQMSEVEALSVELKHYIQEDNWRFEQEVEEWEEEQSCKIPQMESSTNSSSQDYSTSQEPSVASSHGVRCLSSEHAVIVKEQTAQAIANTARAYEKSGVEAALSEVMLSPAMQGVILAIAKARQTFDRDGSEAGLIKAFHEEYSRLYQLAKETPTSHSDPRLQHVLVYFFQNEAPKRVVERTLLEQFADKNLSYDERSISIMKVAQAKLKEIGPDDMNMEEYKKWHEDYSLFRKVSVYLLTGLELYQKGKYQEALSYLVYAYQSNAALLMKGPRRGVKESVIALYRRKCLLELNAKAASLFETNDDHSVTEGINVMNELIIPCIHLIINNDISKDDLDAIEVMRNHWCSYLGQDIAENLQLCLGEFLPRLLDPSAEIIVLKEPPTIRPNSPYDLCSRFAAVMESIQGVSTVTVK
row,IC50,Compound
1,25 µM,COc1ccc(OC)c(NC(=O)CS(=O)(=O)c2cn(CC(=O)N3CCC(C)CC3)c3ccccc23)c1
2,17.2 µM,Cc1cc(C)c2sc(N(CCCn3ccnc3)C(=O)Cc3ccccc3)nc2c1
3,23.5 µM,CCc1ccc(-c2nc(SCC(=O)Nc3ccc4[nH]c(=O)[nH]c4c3)n[nH]2)cc1
4,40.6 µM,C[C@]12C(=O)N(c3ccc(C(=O)NCc4ccc(F)cc4)cc3)C(=O)N1CCc1c2[nH]c2ccccc12
5,7.27 µM,Cc1cc(N2CCN(c3ncccn3)CC2)nc2ccc(NC(=O)c3ccncc3)cc12
6,3.91 µM,Cc1cccc(-n2ccnc(SCC(=O)Nc3ccc(Cl)cc3F)c2=O)c1
7,0.436 µM,Cc1sc2ncnc(OCc3ccc(F)cc3Cl)c2c1C
8,> 50 µM (inactive),O=C(NCc1ccc2c(c1)OCO2)c1nn(C23CC4CC(CC(C4)C2)C3)cc1[N+](=O)[O-]
9,> 50 µM (inactive),COc1ccc(N2CCN(Cc3nnnn3Cc3ccc4c(c3)OCO4)CC2)cc1
10,> 50 µM (inactive),CC(C)Cn1cc(OC(=O)c2ccc(F)cc2)c2c1nc(-c1ccc(F)cc1)n1c3ccccc3nc21
11,> 50 µM (inactive),O=S1(=O)CCN(CC2CCCO2)c2c(Oc3ccccc3)nc(F)c(Cl)c21 (stereo not drawn)
12,> 50 µM (inactive),Cc1cc(-n2c(C)cc(-c3csc(N)n3)c2C)no1
13,17.2 µM,CCS(=O)(=O)c1ccccc1C(=O)Nc1ccc2sc(C)nc2c1
14,19.6 µM,COCCNC(=O)c1ccc(-c2ccc(N3CCCCC3)nc2)cc1
15,28.6 µM,O=C1Nc2ccccc2C(=O)C1C(c1ccc(Cl)cc1)C1C(=O)Nc2ccccc2C1=O (stereo not drawn)
16,4.44 µM,CCOc1ccc(NC(=O)Cn2c(=O)n(CCC(=O)NCc3ccco3)c(=O)c3ccccc32)cc1
17,> 50 µM (inactive),CC1CCCN1C(=O)c1ccn(-c2ccc3ccc(-c4cccnc4)cn23)n1 (stereo not drawn)
18,41.2 µM,O=C(Nc1cccc(OC(=O)c2ccc(Cl)cc2)c1)c1ccc(Cl)cc1
19,6.61 µM,Nc1ccccc1SCc1noc(-c2cccs2)n1
20,1.72 µM,COc1ccc(C(=O)Nc2nc(-c3ccc4c(c3)NC(=O)CO4)c(C)s2)cc1OC
21,29.1 µM,O=C(Cc1cc(-c2ccccc2)on1)NCc1c(F)cccc1F
22,31.3 µM,C/C1=C/CC(O)/C=C/C(C)C(O)C(C)/C=C(\C)C(=O)c2c(O)c(C)cc3c2C(=O)C(Cl)=C(NC(=O)\C=C/C=C/C=C\C(C)C(O)CC1=O)C3=O (stereo not drawn)
23,10.5 µM,CCCCN1CC(C(=O)Nc2ccc(C(=O)Nc3ccc(Cl)cc3)cc2)CC1=O (stereo not drawn)
24,29.8 µM,CCOc1ccc(N2C(=O)c3ccccc3C2C(=O)NCc2ccccc2OC)cc1 (stereo not drawn)

# Further lines, the compound ahead of its results:
row,Compound,IC50
1,O=C(NCc1ccc(F)cc1)N1CCC2(C1)Nc1cccnc1NC2=NCc1ccccc1 (stereo not drawn),> 50 µM (inactive)
2,Cc1cccc(C(=O)OCC(=O)Nc2ccc3[nH]c(=O)[nH]c3c2)c1C,4.94 µM
3,O=C(COc1cccc2c1CCN(Cc1cccnc1)C2=O)Nc1ccc2c(c1)OCCO2,1.34 µM
4,COc1ccc(OC)c(NC(=O)C2=C(C)Nc3ncnn3C2c2ccccc2OCc2ccc(C)cc2)c1 (stereo not drawn),19.9 µM
5,Cc1ccc(NC(=O)c2nnn(-c3ccccc3)n2)cc1F,19.9 µM
6,CCCCN1CC(C(=O)Nc2ccc(C(=O)Nc3ccc(F)c(Cl)c3)cc2)CC1=O (stereo not drawn),34.2 µM
7,O=C(NCc1ccc(Cl)cc1)c1ccc(N2CCCS2(=O)=O)cc1,> 50 µM (inactive)
8,CC1=C[C@@H](C)CC[C@H]2O[C@@H](C3=C(O)C(=O)C(C)=C4O[C@](O)(C=C43)[C@@H](C)C[C@H](C)C1)[C@H](C)[C@@H](O)[C@H]2C,19.5 µM
9,Cc1cccc(NC(=O)CSc2nnc(-c3n[nH]c4c3CCC4)n2N)c1C,17.6 µM
10,O=C(CC(C(=O)Nc1ccc2c(c1)OCO2)C(=O)c1ccccc1)Nc1ccc(Cl)cc1F (stereo not drawn),9.87 µM
11,O=C(CCc1nnc2n(Cc3ccc(F)cc3)c(=O)c3ccccc3n12)N1CCN(c2ccccn2)CC1,> 50 µM (inactive)
12,COc1ccc(NC(=O)c2nc3n(n2)-c2ccccc2S(=O)(=O)N3)cn1,> 50 µM (inactive)
13,C=C(NC(=O)C(=C)NC(=O)c1csc(C2=N[C@@H]3c4csc(n4)[C@H]4NC(=O)c5csc(n5)[C@H]([C@](C)(O)[C@@H](C)O)NC(=O)C5CSC(=N5)/C(=C/C)NC(=O)C([C@@H](C)O)NC(=O)c5csc(n5)[C@]3(CC2)NC(=O)[C@H](C)NC(=O)C(=C)NC(=O)[C@H](C)NC(=O)C([C@@H](C)CC)NC2C=Cc3c(C(C)O)cc(nc3[C@H]2O)C(=O)OC4C)n1)C(N)=O (stereo partly drawn),> 50 µM (inactive)
14,O=C(OCc1ccc(F)cc1)c1ccc2ccccc2n1,2.55 µM
15,COc1ccc(CCNc2c(-c3ccccc3O)nc3cnccn23)cc1OC,> 50 µM (inactive)
16,C=C[C@]1(C)C=C2C(=O)[C@]3(O)OC(=O)[C@@]4(CCCC(C)(C)[C@H]34)[C@@]2(O)CC1,27.6 µM
17,Cc1cc(C)c2cc(C(=O)NC3CCN(Cc4ccccc4)CC3)[nH]c2c1,13.8 µM
18,CCC(CC)n1[nH]c(=O)c2c1NC(=O)CSC2c1ccc2c(c1)OCO2 (stereo not drawn),18.6 µM
19,CN1C(=O)c2cc(NC(=O)c3ccccc3Cl)ccc2Oc2ccccc21,1.25 µM
20,COc1ccccc1CNC(=O)C1CCCN(c2nc3ccsc3c(=O)s2)C1 (stereo not drawn),9.07 µM
21,COc1ccc(CNC(=O)CSc2nc3nc(C)ccc3o2)cc1,31.3 µM
22,O=C(COC(=O)CCc1ccc(S(=O)(=O)N2CCOCC2)cc1)Nc1ccc2c(c1)OCCO2,7.22 µM
23,Cc1ccc(NC(=O)c2sc(=S)n(CCc3ccccc3)c2N)cc1,9.8 µM
24,O=c1c(Nc2cccc(F)c2)nc2ccncc2n1Cc1ccccc1,26 µM
